The target in one data set is T1, α-Glucosidase (Saccharomyces cerevisiae, UniProt P53341).
T1 construct: purchased SRL, Mumbai (India)
In words: biochemical. As to conditions: 0–100 µM, pre-incubation 10 min 37°C, pH 6.9; NS = not significant. As to the method:
Porcine pancreatic α-Amylase and Yeast α-Glucosidase were purchased from SRL, Mumbai (India). Glucose oxidase (GOD POD) kit was purchased from Piramal HealthCare Ltd, Mumbai (India). All other chemicals used were of analytical grade and purchased from Sigma Aldrich, St. Louis (USA) and SRL, Mumbai (India). All IR spectra were obtained in KBr disc on a Shimadzu FT-IR 157 Spectrometer. ^1H and ^13C NMR spectra were recorded on a Bruker WH-200 (400 MZ) spectrometer in CDCl3 or DMSO-d6 as solvent, using TMS as an internal standard and chemical shifts are expressed as ppm. Mass spectra were determined on a Shimadzu LC-MS. The elemental analyses were carried out using an Elemental Vario Cube CHNS rapid Analyzer. The progress of the reaction was monitored by TLC pre-coated silica gel G plates.
The α-glucosidase inhibitory activities of synthesized compounds were evaluated using the method developed by Tsujii et al.. Briefly, α-glucosidase was dissolved in phosphate buffer (50 mM, pH 6.9) and pre-treated with various concentrations of 1,3-benzoxazine derivatives (0–100 µM) independently for 10 min at 37°C. The reaction was initiated by the addition of 50 µL of 5 mM p-nitrophenyl- α -D-glucopyranoside solution in phosphate buffer (50 mM, pH 6.9). The enzyme reaction was carried out at 37°C for 30 min. The reaction was terminated by the addition of Na2CO3 (1 M). The enzymatic activity of α-glucosidase was quantified by measuring the absorption at 405 nm using a Varioskan multimode plate reader (Thermo Scientifics, USA). The inhibitory effect of compounds was defined as inhibitory activity (%) = (Abs Control – Abs Compound treated)/Abs Control ×100. Concentration-response assays were used to determine the potency (IC50) of 1,3-benzoxazine derivatives based on the logistic analysis of the concentration-response curve using Microsoft Excel.

Data set [1] deals with T2, Porcine pancreatic α-amylase (Sus scrofa, UniProt P00690).
T2 construct: purchased SRL, Mumbai (India)
T2 sequence (P00690 16-511): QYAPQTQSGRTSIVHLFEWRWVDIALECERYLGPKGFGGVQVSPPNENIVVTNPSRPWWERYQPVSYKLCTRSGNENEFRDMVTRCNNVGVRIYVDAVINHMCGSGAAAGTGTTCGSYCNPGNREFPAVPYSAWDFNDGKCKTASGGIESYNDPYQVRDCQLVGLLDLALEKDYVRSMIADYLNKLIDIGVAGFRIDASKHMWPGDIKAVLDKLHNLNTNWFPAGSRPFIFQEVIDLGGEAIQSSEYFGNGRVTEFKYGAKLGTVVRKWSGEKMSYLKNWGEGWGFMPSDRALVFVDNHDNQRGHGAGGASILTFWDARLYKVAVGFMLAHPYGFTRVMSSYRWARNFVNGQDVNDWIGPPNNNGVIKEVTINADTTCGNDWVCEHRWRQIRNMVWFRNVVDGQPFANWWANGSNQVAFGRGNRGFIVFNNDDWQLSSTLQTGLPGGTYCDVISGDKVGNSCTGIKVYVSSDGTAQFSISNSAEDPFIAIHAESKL
In words: α-amylase inhibition assay (starch, DNS reagent). As to conditions: 0–100 µM, pre-incubation 10 min 37°C, pH 6.9; NS = not significant. The format is biochemical. As to the method: Porcine pancreatic α-Amylase and Yeast α-Glucosidase were purchased from SRL, Mumbai (India). Glucose oxidase (GOD POD) kit was purchased from Piramal HealthCare Ltd, Mumbai (India). All other chemicals used were of analytical grade and purchased from Sigma Aldrich, St. Louis (USA) and SRL, Mumbai (India). […] Mass spectra were determined on a Shimadzu LC-MS. The elemental analyses were carried out using an Elemental Vario Cube CHNS rapid Analyzer. The progress of the reaction was monitored by TLC pre-coated silica gel G plates.
The α-amylase inhibition assay was performed according to a previous report. Porcine pancreatic α-amylase (3 units/mL) was dissolved in 0.1 M phosphate buffered saline, pH 6.9. […] The reaction was initiated by adding substrate solution (0.1% starch) to the incubation medium. After 10 min incubation, the reaction was stopped by adding 250 µL dinitrosalicylic (DNS) reagent (1% 3, 5-dinitrosalicylic acid, 0.2% phenol, 0.05% Na2SO3 and 1% NaOH in aqueous solution) to the reaction mixture. The reaction was terminated by keeping the reaction mixture in boiling water bath for 10 min. Thereafter, 250 µL of 40% potassium sodium tartarate solution was added to the mixtures to stabilize the colour. After cooling to room temperature in a cold water bath, the absorbance was recorded at 540 nm using a Varioskan multimode plate reader (Thermo Scientifics, USA). Acrabose was used as positive control. The percentage of inhibition was calculated using Abs Contol – Abs Sample ×100/Abs Control. Where Abs Control was the absorbance without sample, Abs sample was the absorbance of enzyme with compound.

Another data set relates to rat intestinal maltase. The data set can be described thus: Intestinal α-glucosidase inhibitory assay, maltose as substrate. The data set is classed as biochemical. As for the experimental part:
(§1) Intestinal α-glucosidase activity was determined by measuring the amount of glucose hydrolyzed from maltose or sucrose. Briefly, rat intestinal acetone powder was homogenized in 0.9% saline and the suspension was centrifuged at 10,000 g for 30 min at 4°C and the supernatant obtained was used as enzyme source. […] After the respective incubation period, reaction was terminated by keeping the samples in boiling water bath for 10 min. The concentration of glucose released from the reaction mixtures was determined by using Glucose oxidase (GOD POD) kit according to the manufacturer’s protocol. Results were expressed as percentage inhibition of intestinal maltase/sucrase activity.

Another data set has as its target T3, rat intestinal sucrase (Rattus norvegicus, UniProt P23739).
T3 construct: the supernatant obtained was used as enzyme source; tissue Sigma Aldrich, St. Louis (USA); host or cells: rat intestinal acetone powder (supernatant of the saline homogenate)
In words: Intestinal α-glucosidase inhibitory assay, sucrose as substrate. The data set is classed as biochemical. As for the experimental part: as §1

The subject of data set [2] is overnight fasted Wistar rats. In words: Oral maltose tolerance test. The format is in vivo, rat. An excerpt:
(§2) Adult Wistar rats weighing 150–180 g were collected from the University Central Animal Facility and housed under a controlled environment. All animal experiments were approved by the Institutional Animal Ethical Committee (Order No : MGZ/2620/2011-12 Dated 31-01-2012; UOM/IAEC/18/2011), Department of Studies in Zoology, University of Mysore, Mysore and were in accordance with the guidelines of the Committee for the Purpose of Control and Supervision of Experiments on Animals (CPCSEA).
(§3) The experimental animals were randomly divided into 11 groups each consisting of 5 rats. […] Blood was collected from the tail vein to the tubes containing anticoagulant (2.5% trisodium citrate and 1.37% citric acid in the ratio 1∶5; anti-coagulant: blood) at time point 0 (just before sucrose/maltose administration), and subsequently at 30, 60, 90, 120 and 180 min after substrate (sucrose/maltose) administration. Plasma was separated by centrifuging the samples at 2000 rpm for 10 min and stored at −20°C until analysis. Plasma glucose concentration was determined by using the Glucose oxidase (GOD POD) kit according to the manufacturer’s protocol.

Data set [3] deals with overnight fasted Wistar rats. The data set can be described thus: Oral sucrose tolerance test. The format is in vivo, rat.
Text: as §2, §3

The next data set deals with porcine diaphragm. In words: Glucose uptake study in porcine diaphragm. Conditions: 50 and 100 µM, with and without insulin (1 U), 5 mM glucose. As to the method:
Porcine diaphragm was purchased from a slaughter house, and cleaned using ice cold 0.9% saline several times to remove blood stains. This diaphragm was used for glucose uptake and inhibition by compound 7. Diaphragm (100 mg) was suspended in a 24 well culture plate containing 500 µL saline. In order to initiate the reaction, 5 mM glucose was added to each well. To enhance the glucose uptake by the diaphragm, 1 unit of insulin was used in each well, and the volume was made up to 1 ml with saline. For inhibition studies, compound 7 at a concentration of 50 & 100 µM was used. From each well 100 µL of the assay mixture was aspirated at different time intervals (0, 5, 10, 20, 30 and 60 min). From this, glucose concentration was measured using Glucose oxidase (GOD POD) kit according to the manufacturer’s protocol.

Structures are written as SMILES.

T3 sequence (P23739 whole entry): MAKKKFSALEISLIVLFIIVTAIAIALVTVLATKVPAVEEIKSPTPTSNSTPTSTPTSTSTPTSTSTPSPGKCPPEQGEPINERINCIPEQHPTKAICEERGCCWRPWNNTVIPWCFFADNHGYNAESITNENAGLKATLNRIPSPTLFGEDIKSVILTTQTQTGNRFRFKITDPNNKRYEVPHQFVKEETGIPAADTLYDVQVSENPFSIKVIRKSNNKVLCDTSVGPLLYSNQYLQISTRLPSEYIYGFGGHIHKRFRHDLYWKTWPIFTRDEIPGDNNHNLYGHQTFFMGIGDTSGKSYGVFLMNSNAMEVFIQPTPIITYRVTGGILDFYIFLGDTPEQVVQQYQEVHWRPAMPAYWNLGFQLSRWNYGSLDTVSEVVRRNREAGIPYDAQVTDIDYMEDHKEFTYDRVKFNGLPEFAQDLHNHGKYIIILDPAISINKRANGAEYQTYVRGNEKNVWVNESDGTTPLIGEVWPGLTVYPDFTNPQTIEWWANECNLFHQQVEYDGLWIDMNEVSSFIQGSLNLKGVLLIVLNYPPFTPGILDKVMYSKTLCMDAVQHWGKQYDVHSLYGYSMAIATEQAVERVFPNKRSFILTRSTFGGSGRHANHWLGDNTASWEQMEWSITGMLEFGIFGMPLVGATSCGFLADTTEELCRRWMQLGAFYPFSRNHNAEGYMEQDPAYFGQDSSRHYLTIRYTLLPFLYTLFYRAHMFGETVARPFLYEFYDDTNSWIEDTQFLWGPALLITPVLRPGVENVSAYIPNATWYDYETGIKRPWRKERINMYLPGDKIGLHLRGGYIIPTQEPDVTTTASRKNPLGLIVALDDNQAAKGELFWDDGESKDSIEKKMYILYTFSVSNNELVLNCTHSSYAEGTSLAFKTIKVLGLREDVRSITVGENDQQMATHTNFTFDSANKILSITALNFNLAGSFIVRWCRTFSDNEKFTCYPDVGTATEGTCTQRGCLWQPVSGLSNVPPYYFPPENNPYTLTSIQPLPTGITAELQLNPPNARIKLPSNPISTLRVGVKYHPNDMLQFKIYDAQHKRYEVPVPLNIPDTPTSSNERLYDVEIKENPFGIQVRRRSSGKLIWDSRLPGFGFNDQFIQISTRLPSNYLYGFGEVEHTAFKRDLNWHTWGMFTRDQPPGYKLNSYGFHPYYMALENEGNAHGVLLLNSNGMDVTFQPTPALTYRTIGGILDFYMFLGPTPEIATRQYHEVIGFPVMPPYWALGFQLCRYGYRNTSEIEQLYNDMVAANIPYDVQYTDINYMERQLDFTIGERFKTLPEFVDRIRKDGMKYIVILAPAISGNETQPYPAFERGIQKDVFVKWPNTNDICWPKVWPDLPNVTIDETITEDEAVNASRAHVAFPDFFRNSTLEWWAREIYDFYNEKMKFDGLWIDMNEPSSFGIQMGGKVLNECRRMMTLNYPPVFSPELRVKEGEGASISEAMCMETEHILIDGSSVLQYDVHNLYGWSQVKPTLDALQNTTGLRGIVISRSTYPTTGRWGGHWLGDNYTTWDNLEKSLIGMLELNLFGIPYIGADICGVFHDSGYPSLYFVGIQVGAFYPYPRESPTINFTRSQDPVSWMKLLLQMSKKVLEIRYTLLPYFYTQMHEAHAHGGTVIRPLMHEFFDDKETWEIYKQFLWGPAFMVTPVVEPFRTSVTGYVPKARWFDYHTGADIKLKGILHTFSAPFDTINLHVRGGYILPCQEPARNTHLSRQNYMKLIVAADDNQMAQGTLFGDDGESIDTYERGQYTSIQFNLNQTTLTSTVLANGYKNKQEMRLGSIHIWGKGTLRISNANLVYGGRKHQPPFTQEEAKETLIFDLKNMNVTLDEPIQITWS
T1 sequence (P53341 whole entry): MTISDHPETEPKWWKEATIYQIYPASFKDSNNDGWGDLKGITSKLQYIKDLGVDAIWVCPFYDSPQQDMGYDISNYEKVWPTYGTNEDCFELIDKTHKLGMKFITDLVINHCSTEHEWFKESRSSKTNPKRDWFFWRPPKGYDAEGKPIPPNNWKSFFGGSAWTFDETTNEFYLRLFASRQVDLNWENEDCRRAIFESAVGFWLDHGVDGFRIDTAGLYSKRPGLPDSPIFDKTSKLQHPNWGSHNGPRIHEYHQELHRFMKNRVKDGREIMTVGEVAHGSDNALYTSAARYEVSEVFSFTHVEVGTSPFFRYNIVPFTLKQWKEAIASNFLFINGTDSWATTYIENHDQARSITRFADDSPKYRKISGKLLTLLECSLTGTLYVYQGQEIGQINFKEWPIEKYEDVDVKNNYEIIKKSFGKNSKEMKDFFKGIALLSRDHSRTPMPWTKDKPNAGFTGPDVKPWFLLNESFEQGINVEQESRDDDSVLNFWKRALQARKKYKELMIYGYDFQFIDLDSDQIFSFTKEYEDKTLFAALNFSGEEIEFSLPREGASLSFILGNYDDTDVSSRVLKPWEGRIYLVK

What is called IC50 is the concentration that gives 50% inhibition. A lower IC50 goes with higher potency. The term melting point denotes the temperature, or range, at which the solid turns liquid. In turn, `Oc1ccc(C2Nc3cc(Cl)ccc3CO2)cc1` (stereo not shown) [compound 7, 4-(7-chloro-2,4-dihydro-1H-benzo[d][1,3]oxazin-2-yl)phenol] returned a melting point of 139 to 141 °C. Further, the IC50 against α-Glucosidase came to 11.5 ± 0.1 µM. The compound further showed an IC50 in data set [1] of 11 ± 0.3 µM. The “percentage inhibition of intestinal maltase in presence of acarbose” value with rat intestinal maltase (5 µM acarbose with compound 7 1–10 µM, compared with intestinal sucrase) is “synergistically inhibited intestinal maltase more efficiently compared to intestinal sucrase”. Besides, the “percentage inhibition of intestinal maltase” value in the data set on rat intestinal maltase (compound 7 5–25 µM) is on record as “dose-dependent manner”. At rat intestinal maltase (rat intestinal acetone powder, maltose 37 mM, 30 min), this compound yielded an IC50 of 10 µM. For the same compound, in the data set on rat intestinal maltase (ratio of IC50 values, rat intestinal enzymes), the “selectivity for maltase over sucrase” value is “two-fold selective for maltase”. The “percentage inhibition of intestinal sucrase” value at rat intestinal sucrase (compound 7 5–25 µM) is given as “dose-dependent manner”. The same compound showed an IC50 against rat intestinal sucrase (rat intestinal acetone powder, sucrose 56 mM, 60 min) of 20 µM. For the same compound, the plasma glucose concentration entry in data set [2] (50 mg/kg oral, maltose 3 g/kg, 90 min, compared to acarbose) was “significantly reduced plasma glucose concentration at the 90 min time point compared to acarbose”. For the same compound, the plasma glucose concentration entry in data set [2] (100 mg/kg oral, maltose 3 g/kg, compared to acarbose standard) was “significantly more effective than the acarbose standard at all time points”. Besides, the plasma glucose concentration entry in data set [2] (compound 7 50 mg/kg together with acarbose 3 mg/kg, maltose, up to 180 min, compared to saline group) is on record as “plasma glucose concentration remained unchanged when compared to the saline treated group”. Also, the plasma glucose concentration entry in data set [3] (50 mg/kg oral, sucrose 3 g/kg, 0–180 min, compared to acarbose treated group) is listed as “significantly reduced the plasma glucose concentration throughout all time points”. The plasma glucose concentration entry in data set [3] (100 mg/kg oral, sucrose 3 g/kg, compared to acarbose standard) is listed as “significantly more effective than the acarbose standard at all time points”. In data set [3] (compound 7 50 mg/kg together with acarbose 3 mg/kg, sucrose, up to 180 min, compared to saline group), the plasma glucose concentration entry is “plasma glucose concentration remained unchanged when compared to the saline treated group”. The “glucose uptake by diaphragm” value with porcine diaphragm is “significantly blocked the glucose uptake both in control and insulin treated diaphragm in a dose-dependent manner”.

The values are drawn from article PMC4105438, “Novel Benzoxazine-Based Aglycones Block Glucose Uptake In Vivo by Inhibiting Glycosidases” (PLoS ONE, 2014).
